Here are results for 45 molecules from US10941132B2, “Pyrazole derivatives” (HUA MEDICINE (SHANGHAI) Ltd., priority 2016, dated 2021).

pIC50: −log10 of the molar value. Bounds are passed on as bounds.

T1 sequence (P31424 21-1203): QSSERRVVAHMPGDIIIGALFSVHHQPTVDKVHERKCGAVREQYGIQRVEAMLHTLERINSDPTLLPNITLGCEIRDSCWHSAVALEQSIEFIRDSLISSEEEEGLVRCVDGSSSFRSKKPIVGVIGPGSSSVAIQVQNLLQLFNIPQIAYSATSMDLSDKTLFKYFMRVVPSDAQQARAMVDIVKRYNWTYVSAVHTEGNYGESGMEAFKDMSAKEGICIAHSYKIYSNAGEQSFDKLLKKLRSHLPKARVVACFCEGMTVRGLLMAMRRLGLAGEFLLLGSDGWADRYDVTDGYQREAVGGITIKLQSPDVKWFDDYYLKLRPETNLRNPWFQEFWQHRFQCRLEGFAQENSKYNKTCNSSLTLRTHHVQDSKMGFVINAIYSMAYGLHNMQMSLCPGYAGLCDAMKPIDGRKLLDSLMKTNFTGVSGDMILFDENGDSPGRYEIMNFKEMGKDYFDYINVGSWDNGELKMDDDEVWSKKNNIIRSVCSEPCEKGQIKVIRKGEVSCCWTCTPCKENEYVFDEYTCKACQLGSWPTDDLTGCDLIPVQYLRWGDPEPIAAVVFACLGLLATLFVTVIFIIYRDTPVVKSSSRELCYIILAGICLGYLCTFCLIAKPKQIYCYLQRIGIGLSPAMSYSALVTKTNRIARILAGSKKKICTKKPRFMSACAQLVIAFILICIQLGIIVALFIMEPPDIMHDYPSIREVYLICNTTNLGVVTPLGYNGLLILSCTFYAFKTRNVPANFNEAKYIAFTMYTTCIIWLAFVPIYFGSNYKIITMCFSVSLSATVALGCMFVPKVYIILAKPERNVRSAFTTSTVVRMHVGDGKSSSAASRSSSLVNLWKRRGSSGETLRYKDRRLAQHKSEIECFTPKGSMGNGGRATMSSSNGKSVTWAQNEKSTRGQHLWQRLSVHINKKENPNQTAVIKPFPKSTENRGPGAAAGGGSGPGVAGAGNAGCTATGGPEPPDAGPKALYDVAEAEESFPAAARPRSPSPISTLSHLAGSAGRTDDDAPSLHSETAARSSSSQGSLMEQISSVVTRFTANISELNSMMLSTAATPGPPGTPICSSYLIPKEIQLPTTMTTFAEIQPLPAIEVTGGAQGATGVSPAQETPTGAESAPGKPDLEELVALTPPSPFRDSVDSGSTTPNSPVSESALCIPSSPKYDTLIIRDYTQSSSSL

The assay has as its target T1, recombinant rat mGluR5 (Rattus norvegicus, UniProt P31424).
T1 construct: expressed in transfected cells
In words: Functional calcium flux assay (FLIPR), antagonist evaluation against glutamate-evoked [Ca2+]i increase. The note with it: Table 1; HEK293 cells stably expressing recombinant rat mGluR5; 15 min incubation of test compound, then submaximal glutamate; read-out: IC50 value (FLIPR assay). Format: cell-based. How it is done:
Functional Calcium Clux Assay Methodology
For functional assays, HEK293 cells stably expressing recombinant rat mGluR5 were seeded in 384-well plates and dye loaded using Fluo-8. Cells were then washed to remove the un-incorporated dye. Antagonist evaluation was performed following a 15 min incubation of the test compound followed by the addition of submaximal concentration of glutamate. Intracellular calcium ([Ca^2+]i) measurements were performed using a fluorometric imaging plate reader (FLIPR, Molecular Devices). The glutamate-evoked increase in [Ca^2′]i in the presence of the test compounds was compared to the response to glutamate alone (the positive control). Antagonist inhibition curves were fitted with a 4-parameter logistic equation giving IC50 values, and Hill coefficients using an iterative nonlinear curve fitting algorithm.
The tables below provide IC50 data in this assay. In the activity column, A=IC50>1,000 and ≤5,000 nM; B=IC50>500 and ≤1,000 nM and C=IC50≤500 nM.
(Calcium flux is commonly read through the fluorescence of an indicator in the cells.)
The term pIC50 denotes the negative decadic logarithm of the IC50, by convention in mol/L. As for `Cc1nn(-c2ccc(F)cc2)c(C)c1C#Cc1ccccn1` [Compound 1], the pIC50 was ≥ 6.30.
For `Cc1nn(-c2ccc(F)cc2)c(C)c1C#Cc1ncccn1` [Compound 2, 2-((1-(4-fluorophenyl)-3,5-dimethyl-1H-pyrazol-4-yl)ethynyl) pyrimidine] the value was ≥ 6.30; for `Cc1nn(-c2ccc(F)cc2)c(C)c1C#Cc1ccncn1` [Compound 3, 4-((1-(4-fluorophenyl)-3,5-dimethyl-1H-pyrazol-4-yl)ethynyl) pyrimidine], ≥ 6.30; for `Cc1nn(-c2ccc(OC(F)(F)F)cc2)c(C)c1C#Cc1ccccn1` [Compound 4, 2-((3,5-dimethyl-1-(4-(trifluoromethoxy)phenyl)-H-pyrazol-4-yl)ethynyl)pyridine], ≥ 6.30.
To `Cc1nn(-c2cc(F)cc(C#N)c2)c(C)c1C#Cc1ccccn1` [Compound 5] belongs ≥ 6.30; to `COc1nn(-c2ccc(OC(F)(F)F)cc2)c(C)c1C#Cc1ccccn1` [Compound 7, 2-((3-methoxy-5-methyl-1-(4-(trifluoromethoxy)phenyl)-1H-pyrazol-4-yl)ethynyl)pyridine], ≥ 6.30.
To `COc1nn(-c2ccc(F)cc2)c(C)c1C#Cc1ccccn1` [Compound 8, 2-((1-(4-fluorophenyl)-3-methoxy-5-methyl-1H-pyrazol-4-yl)ethynyl)pyridine] belongs ≥ 6.30; to `COc1c(C#Cc2ccccn2)c(C)nn1-c1ccc(F)cc1` [Compound 9, 2-((1-(4-fluorophenyl)-5-methoxy-3-methyl-1H-pyrazol-4-yl)ethynyl)pyridine], ≥ 6.30.
For the molecule `COc1c(C#Cc2ccccn2)c(C)nn1-c1ccc(OC(F)(F)F)cc1` [Compound 10, 2-((3-methyl-5-methoxy-1-(4-(trifluoromethoxy)phenyl)-1H-pyrazol-4-yl)ethynyl) pyridine], the pIC50 is 5.30 to 6.00.
For `Cc1nn(-c2cc(F)cc(C#N)c2)c(C(F)(F)F)c1C#Cc1ccccn1` [Compound 11, 3-fluoro-5-(3-methyl-4-(pyridin-2-ylethynyl)-5-(trifluoromethyl)-1H-pyrazol-1-yl)benzonitrile], the pIC50 was 5.30 to 6.00.
As for `Cc1nn(-c2ccc(F)cc2)c(C(F)(F)F)c1C#Cc1ccccn1` [Compound 12, 2-((1-(4-fluorophenyl)-3-methyl-5-(trifluoromethyl)-1H-pyrazol-4-yl)ethyny) pyridine], the pIC50 was ≥ 6.30.
For `Cc1nn(-c2ccc(OC(F)(F)F)cc2)c(C(F)(F)F)c1C#Cc1ccccn1` [Compound 13, 2-((3-methyl-1-(4-(trifluoromethoxy)phenyl)-5-(trifluoromethyl)-1H-pyrazol-4-yl)ethynyl) pyridine] the value was 5.30 to 6.00; for `Cc1nn(-c2ccc(OC(F)(F)F)cc2)c(C)c1C#Cc1ncccn1` [Compound 14, 2-((3,5-dimethyl-1-(4-(trifluoromethoxy)phenyl)-1H-pyrazol-4-yl)ethynyl) pyrimidine], ≥ 6.30; for `Cc1c(C#Cc2ccccn2)c(N(C)C)nn1-c1cc(F)cc(C#N)c1` [Compound 15, 3-(3-(dimethylaminuteso)-5-methyl-4-(2-(pyridin-2-yl)ethynyl)-1H-pyrazol-1-yl)-5-fluorobenzonitrile], 5.30 to 6.00.
To `Cc1c(C#Cc2ccccn2)c(N(C)C)nn1-c1ccc(OC(F)(F)F)cc1` [Compound 16] belongs 5.30 to 6.00.
To `Fc1ccc(-n2ncc(C#Cc3ncccn3)c2Cl)cc1` [Compound 17] belongs ≥ 6.30; to `Fc1ccc(-n2ncc(C#Cc3ccccn3)c2Cl)cn1` [Compound 18], ≥ 6.30.
Regarding `Fc1ccc(-n2ncc(C#Cc3ncccn3)c2Cl)cn1` [Compound 19, 2-((5-chloro-1-(6-fluoropyridin-3-yl)-1H-pyrazol-4-yl)ethynyl)pyrimidine], the pIC50 is ≥ 6.30.
For the molecule `Fc1ccc(-n2ncc(C#Cc3ccccn3)c2Cl)cc1` [Compound 20], the pIC50 was ≥ 6.30.
To `FC(F)(F)Oc1ccc(-n2ncc(C#Cc3ccccn3)c2Cl)cc1` [Compound 21] belongs ≥ 6.30; to `FC(F)(F)Oc1ccc(-n2ncc(C#Cc3ncccn3)c2Cl)cc1` [Compound 22], ≥ 6.30; to `Fc1ccc(-n2cc(C#Cc3ccccn3)cn2)cn1` [Compound 23], ≥ 6.30.
For the molecule `Cc1nn(-c2ccc(F)nc2)c(C)c1C#Cc1ccccn1` [Compound 24], the pIC50 is ≥ 6.30.
For `Cc1nn(-c2ccc(F)cn2)c(C)c1C#Cc1ccccn1` [Compound 25, 2-(3,5-dimethyl-4-(pyridin-2-ylethynyl)-H-pyrazol-1-yl)-5-fluoropyridine] the value was ≥ 6.30; for `COCCOc1ccc(-n2cc(C#Cc3ccccn3)cn2)cc1` [Compound 26, 2-((1-(4-(2-methoxyethoxy)phenyl)-1H-pyrazol-4-yl)ethynyl) pyridine], ≥ 6.30.
For `Fc1ccc(-n2cc(C#Cc3ccccn3)cn2)nc1` [Compound 27, 5-fluoro-2-(4-(pyridin-2-ylethynyl)-1H-pyrazol-1-yl)pyridine] the value was ≥ 6.30; for `COCCOc1ccc(-n2cc(C#Cc3ccccn3)cn2)cn1` [Compound 28, 2-(2-methoxyethoxy)-5-(4-(pyridin-2-ylethynyl)-1H-pyrazol-1-yl) pyridine], ≥ 6.30.
To `COCCOc1nn(-c2cc(F)cc(C#N)c2)c(C)c1C#Cc1ccccn1` [Compound 29, 3-fluoro-5-(3-(2-methoxyethoxy)-5-methyl-4-(pyridin-2-ylethynyl)-1H-pyrazol-1-yl)benzonitrile] belongs ≥ 6.30; to `COCCOc1nn(-c2cc(F)cc(C#N)c2)c(C)c1C#Cc1ncccn1` [Compound 30, 3-fluoro-5-(3-(2-methoxyethoxy)-5-methyl-4-(pyrimidin-2-ylethynyl)-1H-pyrazol-1-yl)benzonitrile], 5.30 to 6.00; to `COCCOc1nn(-c2ccc(OC(F)(F)F)cc2)cc1C#Cc1ccccn1` [Compound 31, 2-((3-(2-methoxyethoxy)-1-(4-(trifluoromethoxy)phenyl)-1H-pyrazol-4-yl)ethynyl)pyridine], 5.30 to 6.00.
Take `COCCOc1nn(-c2cc(F)cc(C#N)c2)cc1C#Cc1ccccn1` [Compound 32, 3-fluoro-5-(3-(2-methoxyethoxy)-4-(pyridin-2-ylethynyl)-1H-pyrazol-1-yl)benzonitrile]: the pIC50 was ≥ 6.30.
For `Fc1cncc(-n2cc(C#Cc3ccccn3)cn2)c1` [Compound 33], the negative-log IC50 (pIC50) was ≥ 6.30.
To `Fc1ccc(-n2cc(C#Cc3ncccn3)cn2)cn1` [Compound 34, 2-((1-(6-fluoropyridin-3-yl)-1H-pyrazol-4-yl)ethynyl)pyrimidine] belongs ≥ 6.30; to `FC(F)(F)c1ccc(-n2ncc(C#Cc3ccccn3)c2Cl)cc1` [Compound 35, 2-((5-chloro-1-(4-(trifluoromethyl)phenyl)-1H-pyrazol-4-yl)ethynyl)pyridine], ≥ 6.30; to `FC(F)(F)c1ccc(-n2ncc(C#Cc3ncccn3)c2Cl)cc1` [Compound 36, 2-((5-chloro-1-(4-(trifluoromethyl)phenyl)-1H-pyrazol-4-yl)ethynyl) pyrimidine], ≥ 6.30.
For `Cc1c(C#Cc2ccccn2)c(OC(F)F)nn1-c1cc(F)cc(C#N)c1` [Compound 37, 3-(3-(difluoromethoxy)-5-methyl-4-(pyridin-2-ylethynyl)-1H-pyrazol-1-yl)-5-fluorobenzonitrile] the value was ≥ 6.30; for `N#Cc1cc(F)cc(-n2cc(C#Cc3ccccn3)c(Cl)n2)c1` [Compound 38, 3-(3-chloro-4-(pyridin-2-ylethynyl)-1H-pyrazol-1-yl)-5-fluorobenzonitrile], ≥ 6.30; for `N#Cc1cc(F)cc(-n2cc(C#Cc3ncccn3)c(Cl)n2)c1` [Compound 39, 3-(3-chloro-4-(pyrimidin-2-ylethynyl)-1H-pyrazol-1-yl)-5-fluorobenzonitrile], ≥ 6.30.
To `FC(F)(F)Oc1ccc(-n2cc(C#Cc3ccccn3)c(Cl)n2)cc1` [Compound 40, 2-((3-chloro-1-(4-(trifluoromethoxy)phenyl)-1H-pyrazol-4-yl)ethynyl)pyridine] belongs ≥ 6.30; to `FC(F)(F)Oc1ccc(-n2cc(C#Cc3ncccn3)c(Cl)n2)cc1` [Compound 41, 2-((3-chloro-1-(4-(trifluoromethoxy)phenyl)-1H-pyrazol-4-yl)ethynyl)pyrimidine], 5.30 to 6.00.
With `Fc1ccc(-n2cc(C#Cc3ccccn3)c(Cl)n2)cc1` [Compound 42, 2-((3-chloro-1-(4-fluorophenyl)-1H-pyrazol-4-yl)ethynyl)pyridine], the pIC50 was ≥ 6.30.
For `Fc1ccc(-n2cc(C#Cc3ncccn3)c(Cl)n2)cc1` [Compound 43, 2-((3-chloro-1-(4-fluorophenyl)-1H-pyrazol-4-yl)ethynyl)pyrimidine] the value was ≥ 6.30; for `Fc1cncc(-n2cc(C#Cc3ccccn3)c(Cl)n2)c1` [Compound 44, 3-(3-chloro-4-(pyridin-2-ylethynyl)-1H-pyrazol-1-yl)-5-fluoropyridine], ≥ 6.30.
For `Fc1cncc(-n2cc(C#Cc3ncccn3)c(Cl)n2)c1` [Compound 45, 2-((3-chloro-1-(5-fluoropyridin-3-yl)-1H-pyrazol-4-yl)ethynyl) pyrimidine] the value was 5.30 to 6.00; for `CS(=O)(=O)c1ccc(-n2cc(C#Cc3ccccn3)cn2)cc1` [Compound 46, 2-((1-(4-(methylsulfonyl)phenyl)-1H-pyrazol-4-yl)ethynyl)pyridine], 6.00 to 6.30.
